PubChem BioAssay (NCI)
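Each compound was tested at five concentrations against cells in 96-well plates for 48 hours. GI50 marks 50% less growth. TGI: concentration producing complete growth inhibition.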

What was measured:
Assay in all cases: NCI-60 cell line screen, 48 h
CAKI-1 renal = test system: CAKI-1 renal
SF-268 CNS = test system: SF-268 CNS
ACHN renal = test system: ACHN renal
NCI-H460 lung = test system: NCI-H460 lung
TK-10 renal = test system: TK-10 renal
KM12 colon = test system: KM12 colon
SN12C renal = test system: SN12C renal
HCC-2998 colon = test system: HCC-2998 colon
COLO 205 colon = test system: COLO 205 colon
T-47D breast = test system: T-47D breast
OVCAR-5 ovarian = test system: OVCAR-5 ovarian
HOP-62 NSCLC = test system: HOP-62 NSCLC
MDA-MB-231 breast = test system: MDA-MB-231 breast
SK-MEL-28 melanoma = test system: SK-MEL-28 melanoma
K-562 leukemia = test system: K-562 leukemia
SR leukemia = test system: SR leukemia
EKVX NSCLC = test system: EKVX NSCLC
UO-31 renal = test system: UO-31 renal
IGROV1 ovarian = test system: IGROV1 ovarian
M14 melanoma = test system: M14 melanoma
SF-295 CNS = test system: SF-295 CNS
MOLT-4 leukemia = test system: MOLT-4 leukemia
OVCAR-4 ovarian = test system: OVCAR-4 ovarian
RXF 393 renal = test system: RXF 393 renal
U251 CNS = test system: U251 CNS
NCI-H522 lung = test system: NCI-H522 lung
NCI/ADR-RES ovarian = test system: NCI/ADR-RES ovarian
A549 NSCLC = test system: A549 NSCLC
A498 renal = test system: A498 renal
UACC-257 melanoma = test system: UACC-257 melanoma
OVCAR-8 ovarian = test system: OVCAR-8 ovarian
MDA-MB-435 = test system: MDA-MB-435
PC-3 prostate = test system: PC-3 prostate
OVCAR-3 ovarian = test system: OVCAR-3 ovarian
786-0 renal = test system: 786-0 renal
SW-620 colon = test system: SW-620 colon
SF-539 CNS = test system: SF-539 CNS
BT-549 breast = test system: BT-549 breast
HS 578T breast = test system: HS 578T breast
LOX IMVI melanoma = test system: LOX IMVI melanoma
HT29 colon = test system: HT29 colon
NCI-H23 lung = test system: NCI-H23 lung
UACC-62 melanoma = test system: UACC-62 melanoma
MDA-MB-468 breast = test system: MDA-MB-468 breast
SNB-75 CNS = test system: SNB-75 CNS
NCI-H226 lung = test system: NCI-H226 lung
SK-MEL-5 melanoma = test system: SK-MEL-5 melanoma
SK-OV-3 ovarian = test system: SK-OV-3 ovarian
RPMI-8226 leukemia = test system: RPMI-8226 leukemia
HCT-15 colon = test system: HCT-15 colon
HCT-116 colon = test system: HCT-116 colon
HL-60(TB) leukemia = test system: HL-60(TB) leukemia
DU-145 prostate = test system: DU-145 prostate
CCRF-CEM leukemia = test system: CCRF-CEM leukemia
MALME-3M melanoma = test system: MALME-3M melanoma
SK-MEL-2 melanoma = test system: SK-MEL-2 melanoma
MCF7 breast = test system: MCF7 breast
HOP-92 NSCLC = test system: HOP-92 NSCLC
SNB-19 CNS = test system: SNB-19 CNS

`O=C(N/N=C/c1ccoc1)c1[nH]c2ccc(Br)cc2c1-c1ccccc1` showed a GI50 (CAKI-1 renal) of 0.537 µM, a TGI (CAKI-1 renal) of 15.4 µM and a GI50 (SF-268 CNS) of 1.2 µM. It also gave a TGI (SF-268 CNS) of 14.5 µM, a GI50 (ACHN renal) of 0.79 µM and a TGI (ACHN renal) of 14.4 µM. For the same molecule, the GI50 (NCI-H460 lung) was 0.252 µM, the TGI (NCI-H460 lung) was 10.7 µM and the GI50 (TK-10 renal) was 7.96 µM. It also gave a TGI (TK-10 renal) of 24 µM, a GI50 (KM12 colon) of 0.461 µM and a TGI (KM12 colon) of 13.5 µM. The GI50 (SN12C renal) was 0.485 µM, the TGI (SN12C renal) was 12.1 µM and the GI50 (HCC-2998 colon) was 0.755 µM. It also gave a TGI (HCC-2998 colon) of 11.6 µM, a GI50 (COLO 205 colon) of 0.43 µM and a TGI (COLO 205 colon) of 3.14 µM. For the same molecule, the GI50 (T-47D breast) was 3.77 µM, the TGI (T-47D breast) was 32.5 µM and the GI50 (OVCAR-5 ovarian) was 0.745 µM. For the same molecule, the TGI (OVCAR-5 ovarian) was 14.6 µM, the GI50 (HOP-62 NSCLC) was 0.524 µM and the TGI (HOP-62 NSCLC) was 17.6 µM. It also gave a GI50 (MDA-MB-231 breast) of 0.906 µM, a TGI (MDA-MB-231 breast) of 12.3 µM and a GI50 (SK-MEL-28 melanoma) of 2.75 µM. For the same molecule, the TGI (SK-MEL-28 melanoma) was 19.9 µM, the GI50 (K-562 leukemia) was 0.197 µM and the TGI (K-562 leukemia) was over 56.2 µM. The GI50 (SR leukemia) was 0.492 µM, the TGI (SR leukemia) was 36.9 µM and the GI50 (EKVX NSCLC) was 1.03 µM. For the same molecule, the TGI (EKVX NSCLC) was 13.6 µM, the GI50 (UO-31 renal) was 1.01 µM and the TGI (UO-31 renal) was 15.2 µM. For the same molecule, the GI50 (IGROV1 ovarian) was 1.25 µM, the TGI (IGROV1 ovarian) was 13 µM and the GI50 (M14 melanoma) was 0.226 µM. For the same molecule, the TGI (M14 melanoma) was 14.7 µM, the GI50 (SF-295 CNS) was 0.289 µM and the TGI (SF-295 CNS) was 13 µM. The GI50 (MOLT-4 leukemia) was 0.405 µM, the TGI (MOLT-4 leukemia) was 21 µM and the GI50 (OVCAR-4 ovarian) was 5.23 µM. It also gave a TGI (OVCAR-4 ovarian) of 20.9 µM, a GI50 (RXF 393 renal) of 0.455 µM and a TGI (RXF 393 renal) of 19.8 µM. For the same molecule, the GI50 (U251 CNS) was 1.16 µM, the TGI (U251 CNS) was 15.6 µM and the GI50 (NCI-H522 lung) was 0.208 µM. The TGI (NCI-H522 lung) was 1 µM, the GI50 (NCI/ADR-RES ovarian) was 0.231 µM and the TGI (NCI/ADR-RES ovarian) was 1.31 µM. The GI50 (A549 NSCLC) was 1.13 µM, the TGI (A549 NSCLC) was 14.7 µM and the GI50 (A498 renal) was 15.6 µM. The TGI (A498 renal) was 30.2 µM, the GI50 (UACC-257 melanoma) was 7.66 µM and the TGI (UACC-257 melanoma) was 23.3 µM. For the same molecule, the GI50 (OVCAR-8 ovarian) was 0.369 µM, the TGI (OVCAR-8 ovarian) was 5.93 µM and the GI50 (MDA-MB-435) was 0.162 µM. For the same molecule, the TGI (MDA-MB-435) was 0.827 µM, the GI50 (PC-3 prostate) was 0.436 µM and the TGI (PC-3 prostate) was 16 µM. The GI50 (OVCAR-3 ovarian) was 0.257 µM, the TGI (OVCAR-3 ovarian) was 11.5 µM and the GI50 (786-0 renal) was 0.665 µM. It also gave a TGI (786-0 renal) of 14.4 µM, a GI50 (SW-620 colon) of 0.297 µM and a TGI (SW-620 colon) of 15.6 µM. It also gave a GI50 (SF-539 CNS) of 0.246 µM, a TGI (SF-539 CNS) of 1.08 µM and a GI50 (BT-549 breast) of 0.416 µM. For the same molecule, the TGI (BT-549 breast) was 3.12 µM, the GI50 (HS 578T breast) was 0.279 µM and the TGI (HS 578T breast) was 13 µM. It also gave a GI50 (LOX IMVI melanoma) of 0.265 µM, a TGI (LOX IMVI melanoma) of 13.7 µM and a GI50 (HT29 colon) of 0.329 µM. The TGI (HT29 colon) was 2.92 µM, the GI50 (NCI-H23 lung) was 0.728 µM and the TGI (NCI-H23 lung) was 14.2 µM. The GI50 (UACC-62 melanoma) was 0.355 µM, the TGI (UACC-62 melanoma) was 15.8 µM and the GI50 (MDA-MB-468 breast) was 0.346 µM. The TGI (MDA-MB-468 breast) was 3.88 µM, the GI50 (SNB-75 CNS) was 0.299 µM and the TGI (SNB-75 CNS) was 13.2 µM. It also gave a GI50 (NCI-H226 lung) of 3.04 µM, a TGI (NCI-H226 lung) of 16.2 µM and a GI50 (SK-MEL-5 melanoma) of 0.295 µM. The TGI (SK-MEL-5 melanoma) was 1.67 µM, the GI50 (SK-OV-3 ovarian) was 3.54 µM and the TGI (SK-OV-3 ovarian) was 18.4 µM. For the same molecule, the GI50 (RPMI-8226 leukemia) was 0.36 µM, the TGI (RPMI-8226 leukemia) was 33.2 µM and the GI50 (HCT-15 colon) was 0.328 µM. It also gave a TGI (HCT-15 colon) of 11.9 µM, a GI50 (HCT-116 colon) of 0.166 µM and a TGI (HCT-116 colon) of 11.1 µM. For the same molecule, the GI50 (HL-60(TB) leukemia) was 0.205 µM, the TGI (HL-60(TB) leukemia) was 0.852 µM and the GI50 (DU-145 prostate) was 0.568 µM. It also gave a TGI (DU-145 prostate) of 12.4 µM, a GI50 (CCRF-CEM leukemia) of 0.227 µM and a TGI (CCRF-CEM leukemia) of 15.3 µM. For the same molecule, the GI50 (MALME-3M melanoma) was 5.25 µM, the TGI (MALME-3M melanoma) was 21.4 µM and the GI50 (SK-MEL-2 melanoma) was 0.954 µM. The TGI (SK-MEL-2 melanoma) was 16.4 µM, the GI50 (MCF7 breast) was 0.21 µM and the TGI (MCF7 breast) was 12.7 µM. It also gave a GI50 (HOP-92 NSCLC) of 0.989 µM, a TGI (HOP-92 NSCLC) of 13.3 µM and a GI50 (SNB-19 CNS) of 3.15 µM. It also gave a TGI (SNB-19 CNS) of 20 µM.
